Assay results as given in the NIST ThermoML archive (doi:10.1016/j.jct.2010.05.002).

How the values were obtained:
[1] = Molar enthalpy of transition or fusion; conditions: Crystal; Adiabatic calorimetry
[2] = for vapor or sublimation pressure: Transpiration method; for Triple point temperature: Adiabatic calorimetry

CC(C)(C)c1ccc(-c2ccccc2)cc1 [4-(1,1-dimethylethyl)-1,1'-biphenyl]
Conditions | Molar enthalpy of transition or fusion [kcal/mol]
[1] | 4.75

[2]
Conditions | vapor or sublimation pressure [kPa]
301 K, Crystal | 8.2e-05
303.9 K, Crystal | 0.000119
305.9 K, Crystal | 0.000156
307.9 K, Crystal | 0.000203
310.9 K, Crystal | 0.000285
312.9 K, Crystal | 0.000369
313.8 K, Crystal | 0.000417
315.8 K, Crystal | 0.000507
318.8 K, Crystal | 0.000708
319.8 K, Crystal | 0.000814
320.2 K, Crystal | 0.000843
321.7 K, Crystal | 0.001012
322.7 K, Crystal | 0.001146
323.2 K, Crystal | 0.001207
325.2 K, Crystal | 0.0015
326.2 K, Crystal | 0.00168
327.4 K, Liquid | 0.00187
331.5 K, Liquid | 0.00263
334.4 K, Liquid | 0.00326
336.6 K, Liquid | 0.00389
338 K, Liquid | 0.00428
338.8 K, Liquid | 0.00465
340.5 K, Liquid | 0.00532
341.6 K, Liquid | 0.00563
343.7 K, Liquid | 0.00682
343.8 K, Liquid | 0.00673
346.6 K, Liquid | 0.00813
347.2 K, Liquid | 0.00852
347.6 K, Liquid | 0.00864
348.8 K, Liquid | 0.00962
349.8 K, Liquid | 0.0103
350.4 K, Liquid | 0.0106
352.8 K, Liquid | 0.01272
354.8 K, Liquid | 0.01441
357.4 K, Liquid | 0.01733
360.2 K, Liquid | 0.02099
362.6 K, Liquid | 0.025
364.9 K, Liquid | 0.02919
367.4 K, Liquid | 0.03524
370 K, Liquid | 0.04103
371.2 K, Liquid | 0.04325
372.6 K, Liquid | 0.04776
373.9 K, Liquid | 0.05134
375.3 K, Liquid | 0.05672
376.7 K, Liquid | 0.05953
378 K, Liquid | 0.06614

Conditions | Triple point temperature [K]
[2], Crystal | 324.76

Cc1ccc(-c2ccccc2)cc1 [4-methylbiphenyl]
Conditions | Molar enthalpy of transition or fusion [kcal/mol]
[1] | 2.94

[2], Liquid
Conditions | vapor or sublimation pressure [kPa]
323.2 K | 0.00854
325.4 K | 0.01016
327.2 K | 0.01156
329.7 K | 0.01376
332.2 K | 0.01664
334.6 K | 0.01979
336.2 K | 0.02224
338.7 K | 0.02634
341.6 K | 0.03282
344.1 K | 0.03851
346.4 K | 0.04496
349 K | 0.05244
351.2 K | 0.06003
353.2 K | 0.0695

Conditions | Triple point temperature [K]
[2], Crystal | 320.33
